Experimental data reported in article PMC9014412 (Journal of medicinal chemistry, 2022).
Where two headings read alike, the source gives them in different places.

Assays:
[1] = test system: HCT116 cells; assay: CellTiter-Glo 2.0 cell viability assay; format: cell-based, human
Procedure: CellTiter-Glo 2.0 Reagent (Promega UK Ltd, G9242) was equilibrated to room temperature and added to the wells in a ratio of 1 volume reagent:5 volumes medium. Background luminescence was determined using medium alone plus reagent. The plates were shaken on an orbital shaker for 2 min to induce cell lysis and then incubated in the dark at room temperature for 10 min to stabilize the luminescent signal. Luminescence was captured on a CLARIOstar plate reader (BMG Labtech Ltd, UK) at 22 °C to give relative luminescence units and analyzed using BMG Labtech software. EC50 values were calculated by nonlinear regression (Hill plot) and log (inhibitor) versus response—variable slopes (four parameters) using GraphPad Prism 9 software. Each compound dose response was repeated as four independent biological replicates (n = 4).

[2] = test system: HCT116 cells; assay: RNA-seq differential gene expression; format: cell-based, human; details: 10 μM, 24 h
Procedure: RNA-seq analysis was performed in HCT116 cells treated with PROTACs (JPS004, JPS014, JPS016, JPS035, and JPS036) for 24 h at 10 μM concentration. Total RNA was isolated using a Tri-reagent RNA miniprep kit (Zymogen; R2053), before RNA integrity, size, and purity were assessed using an Agilent Bioanalyzer. Library preparation and sequencing were performed by Novogene, using a NovaSeq 6000 PE150 platform at a read depth of 20 million. For bioinformatics analysis, see the Supporting Information. RNA-seq data from the study was deposited at the GEO database (GSE197985).
3. Apoptosis Flow Cytometry Assay
Figure S9. Apoptosis flow cytometry assay with 2.5 µM and 10 µM treatments of JPS016 and JPS016NC at 24 and 48 hours. Error bars represent the average of three independent biological replicates.
µM µM µM 5 µM µM µM µM µM µM µM
4. RNA Seq – Bioinformatics Analysis
Paired-end reads were aligned using HISAT2 (v2.2.1) and mapped to the HISAT2 GRCh38_tran index build.3 Quality control was performed on raw and aligned data using FASTQC (v0.11.9) and summarised using MultiQC (v1.11).4,5 The resulting SAM files were subsequently sorted and converted to the BAM format before indexing with SAMtools (v 1.12).6 Reads were then counted across the exons of each gene and gene loci annotated using command-line program LiBiNorm (v2.4); run in HT-Seq compatibility mode (-z) and provided with the ‘Homosapiens.GRCh38.104’ GTF file obtained from Ensembl. LiBiNorm was run using the following parameters: LiBiNorm count -z -r pos -i gene_name -s reverse <BAM file> Homo_sapiens.GRCh38.104.gtf <OUTPUT file>.7 Default normalisation of expression values and differential gene analysis was then carried out using the R package DESeq2.8 Significance thresholds were set as a p-adjusted value < 0.01 and a fold change > 2 (log2 fold change > 1) and implemented for down-stream analysis, with all plots produced in R. Gene ontology (GO) analysis was carried out using the Bioconductor package topGO using the human genome-wide annotation package to map gene identifiers to the relevant org.Hs.eg.db […]

[3] = target: HDAC2 (Homo sapiens, UniProt Q92769); assay: HDAC2 degradation by quantitative western blotting in HCT116 cells; parameters: Dmax: dose or concentration left out as unconfirmed; details: for HDAC2 degradation in initial screen (in words): HCT116 cells, 24 h, 0.1, 1 and 10 μM, compared with 1 at 10 μM
Procedure: (§11) Initially, each PROTAC was tested at 0.1, 1, and 10 μM in HCT116 cells for 24 h; then, cell extracts were prepared and evaluated for HDAC1/2 and 3 degradation by quantitative western blotting.
(§12) This cell line was incubated at 37 °C with 5% CO2.
(§13) HCT116 cells were seeded into 6-well plates (4 × 10^5 cells/well for 24 h, 2 × 10^5 cells/well for 48 h) for 24 h and then treated with DMSO or compounds at the indicated concentrations in fresh medium (5 mL total). After desired treatment time, the cells were harvested and then lysed in lysis buffer (50 mM Tris-HCl, 150 mM NaCl, 0.5% NP-40, 0.5% Triton X-100) supplemented with a protease inhibitor (Sigma, P8340). The suspension was incubated on ice for 30 min and centrifuged (18,000 rcf, 15 min, 4 °C); then, the supernatant was collected, and protein concentrations were quantified via Bradford Assay using Protein Assay Dye Reagent Concentrate (BIO-RAD). […] PageRuler Plus Prestained Ladder was used for size standards. After gel electrophoresis at 140 V for 90 min, the separated proteins were transferred onto a nitrocellulose membrane at 30 V for 60 min. The membranes were probed with primary antibodies (see the Supporting Information) for 60−90 min. Blots were developed with complimentary IRDye-conjugated secondary antibodies, and the bands were visualized using an Odyssey infrared imaging system. Image processing and band intensity quantification were performed using Image Studio Lite.

[4] = test system: LSD1; assay: LSD1 protein levels by western blotting; format: cell-based, human; details: HCT116 cells, after 48 h
Procedure: (§1) Supporting Information: Biology
(§2) Representative blots of two independent biological replicates.
(§3) Figure S6. Representative Western blot of HDAC1/2/3 levels after 24 hours and 48 hours with 1
(§4) (JPS004), 7 (JPS014) and 9 (JPS016), and bar graph representation of HDAC1-3, LSD1 and Sin3a
(§5) protein levels after 24 hours and 48 hours as the average of three independent biological replicates.
(§6) (also on this page, place not known: HDAC1 24hHDAC2 24hHDAC3 24hHDAC1 48hHDAC2 48hHDAC3 %Protein Levels Remaining (Relative to DMSO) %Protein Levels Remaining (Relative to DMSO))

[5] = test system: H3K56ac; assay: Histone H3 Lys 56 acetylation (H3K56ac) western blotting; format: cell-based, human; details: HCT116 cells, 24 h, screen at 0.1, 1, 10 μM; relative to DMSO, CI-994 and 1 at 10 μM
Description: as §1, §2

[6] = test system: SIN3A; assay: SIN3A protein levels by western blotting; format: cell-based, human; details: HCT116 cells, 10 μM, after 24 h
Procedure: as §1, §2, §3, §4, §5, §6

[7] = test system: HCT116 cells; assay: Apoptosis flow cytometry assay (sub-G1 population); format: cell-based, human; details: 10 μM
Procedure: HCT116 cells were seeded (5 × 10^5 cells/plate) into 6 cm tissue culture plates for 24 h and then treated with 10 μM compounds (with 0.1% DMSO vehicle) or 0.1% DMSO control in fresh medium (5 mL total). The cells were then exposed to the compounds (10 μM) for 24 or 48 h. To harvest the cells, the medium was transferred from each sample plate to 15 mL centrifuge tubes. Each well was washed with 1 mL of phosphate-buffered saline (PBS) and the PBS was transferred to the corresponding 15 mL centrifuge tube. The plates were trypsinized, 2 mL of medium was added, and the cells and medium were transferred to the corresponding 15 mL centrifuge tubes. The harvested cells were pelleted by centrifugation (200g, 5 min, 4 °C), washed with 1 mL PBS, and then pelleted again by centrifugation (200g, 5 min, 4 °C). The supernatant was discarded, and the pellets resuspended in 1 mL of 70% ethanol (ice-cold) to fix the cells. Samples were stored at 4 °C and analyzed within two weeks. PBS (1 mL) was added to each sample tube containing cells fixed in 70% ethanol. The cells were pelleted by centrifugation (200g, 5 min, 4 °C), and the PBS wash was repeated. The supernatant was discarded, and the pellet was resuspended in 50 μL of RNase A (1 μg/mL, Thermo Scientific, EN0531) and left at room temperature for 10 min to digest contaminating RNA. A total of 500 μL of PI stain (50 μg/mL, Invitrogen, P3566) was added to each tube, and the tubes were incubated in the dark, at room temperature, for 30 min. Results were acquired on a BD FACSCanto II flow cytometer and analyzed using BD FACSdiva software. Sub-G1 population was calculated as a percentage of total cell population. Two independent biological replicates were performed.

[8] = target: T1, HDAC3-SMRT complex (Homo sapiens, UniProt O15379); assay: Fluorescent HDAC assay with purified HDAC3-SMRT complex; format: biochemical; details: Boc-(Ac)Lys-AMC substrate
T1 construct: made in house
Procedure: (§7) 2. In Vitro HDAC Assay with Class I HDAC Complexes
(§8) Histone Deacetylase Assay. Inhibition experiments against HDAC1-CoREST-LSD1, HDAC2-CoREST-LSD1 and HDAC3-SMRT-DAD were conducted using a fluorescent HDAC assay. The assays were carried out utilising a black 96-well plates (Corning) with a reaction volume of 50 µL. HDAC complexes were expressed and purified as described previously.1,2 100 µM of Boc- (Ac)Lys-AMC was used as a substrate in each well. All determinations were performed in triplicate. The inhibitors/PROTACs were dissolved at 50 mM in DMSO, and then further diluted with 10% DMSO HDAC assay buffer (10% DMSO, 50 mM Tris pH 7.5, 50 mM NaCl, 0.1 mg/mL BSA) to micromolar concentrations. 1:3 serial dilutions were then carried out using 10% DMSO HDAC assay buffer to afford range of concentrations. 10 µL of each of these solutions were […]
(§9) assay buffer (50 mM Tris pH 7.5, 50 mM NaCl, 0.1 mg/mL BSA). The plate was then incubated at 20 °C, 100 RPM for 1 hour. After incubation, 10 µL of the Boc-(Ac)Lys-AMC substrate, dissolved in HDAC assay buffer, was added to each well. […] Fluorescence intensity was determined […]
(§10) IC 50 values were calculated through the GraphPad Prism 7 software by non-linear regression, log (inhibitor) vs. response – variable slope […]

[9] = target: T2, HDAC1-CoREST-LSD1 complex (Homo sapiens, UniProt Q13547); assay: Fluorescent HDAC assay with purified HDAC1-CoREST-LSD1 complex; format: biochemical; details: Boc-(Ac)Lys-AMC substrate
T2 construct: made in house
Procedure: as §7, §8, §9, §10

[10] = target: T3, HDAC2-CoREST-LSD1 complex (Homo sapiens, UniProt Q92769); assay: Fluorescent HDAC assay with purified HDAC2-CoREST-LSD1 complex; format: biochemical; details: Boc-(Ac)Lys-AMC substrate
T3 construct: made in house
Procedure: as §7, §8, §9, §10

[11] = target: HDAC1 (Homo sapiens, UniProt Q13547); assay: HDAC1 degradation by quantitative western blotting in HCT116 cells
Procedure: as §11, §12, §13

[12] = target: HDAC3 (Homo sapiens, UniProt O15379); assay: HDAC3 degradation by quantitative western blotting in HCT116 cells
Procedure: as §11, §12, §13

[13] = p-adjusted < 0.01, log2 fold change > 1

Sequence of HDAC2 (Q92769 whole entry): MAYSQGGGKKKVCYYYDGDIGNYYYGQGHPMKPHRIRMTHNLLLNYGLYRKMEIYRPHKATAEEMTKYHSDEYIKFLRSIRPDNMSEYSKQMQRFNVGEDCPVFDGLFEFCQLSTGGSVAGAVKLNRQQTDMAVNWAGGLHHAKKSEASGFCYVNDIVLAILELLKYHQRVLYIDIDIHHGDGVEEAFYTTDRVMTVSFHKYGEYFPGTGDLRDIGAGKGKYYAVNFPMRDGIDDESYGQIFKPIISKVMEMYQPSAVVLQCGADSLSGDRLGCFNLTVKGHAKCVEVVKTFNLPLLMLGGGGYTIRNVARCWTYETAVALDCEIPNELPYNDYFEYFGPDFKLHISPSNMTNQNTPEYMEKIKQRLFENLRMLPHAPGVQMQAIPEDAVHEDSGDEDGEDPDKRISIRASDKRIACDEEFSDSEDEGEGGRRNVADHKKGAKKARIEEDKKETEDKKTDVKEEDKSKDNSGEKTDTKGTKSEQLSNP
Sequence of HDAC1 (Q13547 whole entry): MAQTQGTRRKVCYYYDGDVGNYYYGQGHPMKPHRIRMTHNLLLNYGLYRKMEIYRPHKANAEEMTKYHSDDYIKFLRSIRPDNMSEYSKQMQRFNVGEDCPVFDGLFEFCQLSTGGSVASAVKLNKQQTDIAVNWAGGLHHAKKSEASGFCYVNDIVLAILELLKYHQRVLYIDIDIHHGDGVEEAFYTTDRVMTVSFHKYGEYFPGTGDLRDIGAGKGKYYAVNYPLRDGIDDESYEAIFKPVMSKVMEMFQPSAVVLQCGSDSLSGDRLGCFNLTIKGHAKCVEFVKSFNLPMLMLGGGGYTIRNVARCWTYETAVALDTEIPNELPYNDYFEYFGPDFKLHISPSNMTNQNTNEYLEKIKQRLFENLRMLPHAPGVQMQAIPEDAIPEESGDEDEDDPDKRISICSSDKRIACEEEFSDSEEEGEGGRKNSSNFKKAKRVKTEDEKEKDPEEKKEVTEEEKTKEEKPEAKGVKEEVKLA
Sequence of HDAC3 (O15379 whole entry): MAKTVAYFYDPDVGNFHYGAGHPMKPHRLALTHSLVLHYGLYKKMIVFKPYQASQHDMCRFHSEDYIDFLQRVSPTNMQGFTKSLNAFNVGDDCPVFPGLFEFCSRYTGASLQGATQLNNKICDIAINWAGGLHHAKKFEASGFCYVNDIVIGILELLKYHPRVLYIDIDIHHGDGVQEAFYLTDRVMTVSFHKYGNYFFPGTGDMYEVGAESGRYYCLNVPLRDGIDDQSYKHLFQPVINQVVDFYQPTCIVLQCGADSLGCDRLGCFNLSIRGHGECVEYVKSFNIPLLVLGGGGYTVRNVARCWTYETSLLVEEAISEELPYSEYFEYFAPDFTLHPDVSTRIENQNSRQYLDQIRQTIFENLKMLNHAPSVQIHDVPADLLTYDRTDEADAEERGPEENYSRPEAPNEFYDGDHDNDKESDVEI
Sequence of HDAC3 (Q9Y618 389-480 partner limits assumed): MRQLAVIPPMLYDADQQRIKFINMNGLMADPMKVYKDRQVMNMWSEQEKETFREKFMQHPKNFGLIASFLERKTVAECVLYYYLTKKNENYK
T2 sequence (Q13547 whole entry, other chains not shown): as the sequence (Q13547 whole entry) above
T2 sequence (Q9UKL0 86-485 partner limits assumed, other chains not shown): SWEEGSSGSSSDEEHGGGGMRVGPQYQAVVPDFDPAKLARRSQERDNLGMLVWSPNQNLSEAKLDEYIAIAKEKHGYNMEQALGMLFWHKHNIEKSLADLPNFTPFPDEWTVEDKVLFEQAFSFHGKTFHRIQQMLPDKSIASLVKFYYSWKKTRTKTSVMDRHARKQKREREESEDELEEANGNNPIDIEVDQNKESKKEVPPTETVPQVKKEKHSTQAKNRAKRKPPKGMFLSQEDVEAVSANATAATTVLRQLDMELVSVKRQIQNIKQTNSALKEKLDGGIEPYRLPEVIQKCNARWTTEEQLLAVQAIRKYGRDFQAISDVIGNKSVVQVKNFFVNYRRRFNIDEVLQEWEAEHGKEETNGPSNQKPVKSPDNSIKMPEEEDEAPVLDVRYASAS
T1 sequence (O15379 whole entry): as the sequence (O15379 whole entry) above
T1 sequence (Q9Y618 389-480 partner limits assumed): as the sequence (Q9Y618 389-480 partner limits assumed) above
T3 sequence (Q92769 whole entry, other chains not shown): as the sequence (Q92769 whole entry) above
T3 sequence (Q9UKL0 86-485 partner limits assumed, other chains not shown): as the sequence (Q9UKL0 86-485 partner limits assumed, other chains not shown) above

## Cc1ncsc1-c1ccc(CNC(=O)[C@@H]2C[C@@H](O)CN2C(=O)[C@@H](NC(=O)COCCCCCCCCCOCC(=O)Nc2ccc(C(=O)Nc3ccccc3N)cc2)C(C)(C)C)cc1 [Compound 9, (2S,4R)-1-((S)-2-(2-((9-(2-((4-((2-Aminophenyl)carbamoyl)-phenyl)amino)-2-oxoethoxy)nonyl)oxy)acetamido)-3,3-dimethylbutanoyl)-4-hydroxy-N-(4-(4-methylthiazol-5-yl)benzyl)-pyrrolidine-2-carboxamide]
[1]; Homo sapiens, HCT-116, 48 h, 48 h
  EC50: 5.2 ± 0.6 µM
[2]; [13]
  Number of downregulated DEGs: 1477
  Number of upregulated DEGs: 2464
[3]
  HDAC2 degradation in initial screen (in words): marginally increased compared to 1 at 10 μM
[3]; HCT-116, read-out: Dmax HDAC2
  Dmax: 45%
[3]; HCT-116, read-out: Dmax HDAC2 in time course
  Dmax: 51%
[4]
  LSD1 levels: approximately 40 % of controls
[5]
  H3K56ac levels (in words): increased H3K56ac levels to the same levels as CI-994
[6]
  SIN3A levels (abundance): 60 % abundance
[7]; after 24 h
  Percentage of cells in sub-G1 phase (in words): highest percentage of cells in the sub-G1 phase
[7]; after 48 h
  Percentage of cells in sub-G1 phase (in words): highest percentage of cells in the sub-G1 phase

## CC(=O)N[C@H](C(=O)N1C[C@H](O)C[C@H]1C(=O)NCc1ccc(-c2scnc2C)cc1OCCCCCCCCCCCC(=O)Nc1ccc(C(=O)Nc2ccccc2N)cc1)C(C)(C)C [Compound 21, (2S,4R)-1-((S)-2-Acetamido-3,3-dimethylbutanoyl)-N-(2-((12-((4-((2-aminophenyl)carbamoyl)phenyl)amino)-12-oxododecyl)oxy)-4-(4-methylthiazol-5-yl)benzyl)-4-hydroxypyrrolidine-2-carboxamide]
[1]; CellTiter-Glo and flow cytometry
  Effect on cell viability (in words): little effects on cell viability
[2]; compared with the more potent degraders
  Fold less DEGs: approximately 10 fold
[8]
  IC50: 3.81 ± 0.79 µM
[9]
  IC50: 1.81 ± 0.54 µM
[3]
  HDAC2 degradation in initial screen (in words): comparable HDAC1 and HDAC2 degradation to 1
[3]; HCT-116, read-out: Dmax HDAC2
  Dmax: 49%
[10]
  IC50: 3.46 ± 0.78 µM
[5]
  H3K56ac levels (in words): increased H3K56ac levels significantly but not to the same levels as 1
[11]; HCT116 cells, 24 h, 0.1, 1 and 10 μM, compared with 1 at 10 μM
  HDAC1 degradation in initial screen (in words): comparable HDAC1 and HDAC2 degradation to 1
[11]; HCT-116, read-out: Dmax HDAC1
  Dmax: 68%
[12]; HCT116 cells, 24 h, 0.01-10 μM
  HDAC3 dose-response behaviour (hook effect): exhibit a standard dose response curve for HDAC3
[12]; HCT-116, read-out: Dmax HDAC3
  Dmax: 76%
